# Counter-ions that a name gives are not always drawn.
# Experiments:
# [1] = 1-Octanol/water partition coefficient (shake-flask); details: bile acids as ionized species, pH 8
# Protocol: The octanol/water partition coefficient was measured for molecules in their ionized form and therefore the carboxy analogues were studied at a relatively high pH (8 to 9) to ensure full ionization of the carboxyl group. The 1-Octanol/water partition coefficient (log P) was evaluated using a conventional shake-flask procedure. […] The aqueous buffer was previously pre-saturated with 1-octanol, 5 ml of 1-octanol pre-saturated with water was then added and the samples were left to equilibrate for 2 weeks under continuous stirring at room temperature. After centrifugation the two phases were carefully separated. […] The flow rate was 150 μal/min and the column was maintained at 45° C.
# CAR = target: T1, CAR (Homo sapiens, UniProt Q14994); assay: CAR coactivator recruitment (Lanthascreen); format: biochemical; details: Table 6; coactivator recruitment (Lanthascreen)
# T1 construct: purchased Invitrogen
# T1 sequence (Q14994 109-352 limits assumed): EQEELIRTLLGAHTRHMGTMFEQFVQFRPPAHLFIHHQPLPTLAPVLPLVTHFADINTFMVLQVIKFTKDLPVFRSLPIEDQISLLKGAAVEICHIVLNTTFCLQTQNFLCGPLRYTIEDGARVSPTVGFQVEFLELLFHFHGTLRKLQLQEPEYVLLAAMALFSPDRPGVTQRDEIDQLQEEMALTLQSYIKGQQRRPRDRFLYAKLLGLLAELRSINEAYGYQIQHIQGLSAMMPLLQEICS
# intestinal bacteria = assay: In vitro metabolic stability in human stools culture; format: in vitro ADME
# Protocol: Homogenized fresh human stools (500 mg) were transferred into sterile vials to which 5 mL of sterilized chopped meat-glucose medium (Scott Lab., Fiskville, R.I.) was added. BAs were then added at a final concentration of 0.05 mM. Vials were incubated at 37° C.; then, at 0, 1, 2, 4, 8 and 24 h after the addition of the BA, the reaction was stopped with 150 μL of 30% KOH. The samples were centrifuged at 3500 rpm for 10 min; from the supernatant the BA were isolated by C-18 solid-phase extraction and analyzed by TLC and HPLC-ES-MS/MS.
# Thin-layer chromatography (TLC), utilizing silica gel 0.25 mm thickness plates (Merck, Darmstat, Germany), was employed as the first screening test. The solvent system used for the separation of conjugated BA was composed of propionic acid/isoamyl acetate/water/N-propanol (3:4:1:2, v/v/v/v; solvent I), and that of the unconjugated BA was acetic acid/carbon tetrachloride/isopropyl ether/isoamyl acetate/water/N-propanol/benzene (1:4:6:8:2:2, v/v/v/v/v/v; solvent II).
# [2] = Bile fistula rat, femoral (iv) infusion: bile flow, biliary secretion, metabolism; details: for Conc. in bile: rat bile; for Secretion (biliary): rat
# PXR = target: T2, PXR (Homo sapiens, UniProt O75469); assay: PXR ligands competition assay (binding assay); details: Table 6
# T2 sequence (O75469 1-434): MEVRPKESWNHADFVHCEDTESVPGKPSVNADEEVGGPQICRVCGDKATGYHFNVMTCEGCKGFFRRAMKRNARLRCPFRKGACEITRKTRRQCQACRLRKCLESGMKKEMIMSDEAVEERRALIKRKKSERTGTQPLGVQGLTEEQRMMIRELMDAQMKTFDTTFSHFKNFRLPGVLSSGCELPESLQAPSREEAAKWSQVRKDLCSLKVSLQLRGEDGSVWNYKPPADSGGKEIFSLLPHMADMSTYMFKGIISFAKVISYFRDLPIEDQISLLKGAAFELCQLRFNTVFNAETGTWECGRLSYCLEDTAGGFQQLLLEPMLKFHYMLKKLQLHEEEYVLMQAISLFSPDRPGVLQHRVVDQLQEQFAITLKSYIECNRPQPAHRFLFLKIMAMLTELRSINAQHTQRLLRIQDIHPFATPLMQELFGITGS
# bovine serum albumin = bovine serum albumin (Bos taurus, UniProt P02769); assay: Albumin binding by equilibrium dialysis; format: in vitro ADME; design: 5% bovine serum albumin-saline solution (pH 7.2); from tissue; host or cells: bovine serum (by the name of the product); details: 100 μM BA in 5% bovine serum albumin-saline, pH 7.2
# Protocol: The extent of albumin binding was evaluated by equilibrium dialysis at a fixed BA-albumin ratio. Each BA was dissolved at a concentration of 100 μM in 5% bovine serum albumin-saline solution (pH 7.2) and left to stand for 24 h at 25° C. Two milliliters of this solution was dialyzed in cellulose sacs having a molecular weight cut-off of 12,000-14,000 Dalton against 25 ml of saline solution. The system was equilibrated by gently shaking for 72 h at 25° C. BA concentrations of the dialyzed solution (corresponding to the free unbound fraction) and of the starting solution were determined with HPLC-ESI-MS/MS in the same conditions of the previous analysis.
# The percentage of albumin binding was calculated from the initial BA concentration and from the unbound concentration in the dialyzed fraction.
# hTGR5 [3] = target: T3, hTGR5 (Homo sapiens, UniProt Q8TDU6); assay: FRET assay (intracellular cAMP) in NCI-H716 cells; format: cell-based; design: Human intestinal cell lines (NCI-H716) were plated in 96-well plates; endogenous in cells; host or cells: NCI-H716
# T3 sequence (Q8TDU6 1-330): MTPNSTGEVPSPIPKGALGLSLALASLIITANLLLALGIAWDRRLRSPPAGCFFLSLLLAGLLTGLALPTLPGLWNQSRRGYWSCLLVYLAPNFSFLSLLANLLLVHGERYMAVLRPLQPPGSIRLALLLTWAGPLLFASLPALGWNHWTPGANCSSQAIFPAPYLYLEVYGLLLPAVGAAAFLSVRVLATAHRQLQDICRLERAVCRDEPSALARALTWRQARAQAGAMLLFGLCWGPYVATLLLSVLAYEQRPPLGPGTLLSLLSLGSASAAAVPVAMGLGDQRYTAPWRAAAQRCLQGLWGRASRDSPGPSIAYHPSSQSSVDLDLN
# Protocol: The receptor binding assay was performed by measuring the level of cyclic AMP (cAMP) using FRET assay. Human intestinal cell lines (NCI-H716) were plated in 96-well plates coated with 0.75 mg/ml Matrigel (BD Biosciences) according to manufacturer's instructions just prior to use, at a density of 12×10^3 cells/well in DMEM supplemented with 10% (v/v) FBS, 100 units/ml penicillin and 100 μg/ml streptomycin sulfate, and cultured for 24 h, which allowed cell adhesion to the bottom of the plate. The cells were washed twice with PBS and medium was exchanged for cAMP assay medium [OPTIMEM containing 0.1% (w/v) BSA and 1 mM 3-isobutyl-1-methylxanthine (IBMX)]. […] The level of intracellular cAMP was determined with Lance kit (PerkinElmer). Litocholic acid was used as control ligand. Z′ factor was used to validate assays. Non linear regression curves, without constraints, were performed by using four parameter equation and GraphPad Prism Software (GraphPad Inc.), to obtain the EC50 values.
# (§1) After subtracting the average value of the basal (vehicle-treated) condition, values were applied to EC50 and/or efficacy determinations. Calculation of average EC50 and comparison of the EC50 between different compounds were done after transformation to logarithms.
# hTGR5 [4] = target: T3, hTGR5; assay: FRET-cAMP on TGR5 overexpressing Hek293 cells; format: cell-based; design: Human intestinal cell lines (NCI-H716) were plated in 96-well plates; endogenous in cells
# hTGR5 [5] = target: T3, hTGR5; assay: cell-based; design: Human intestinal cell lines (NCI-H716) were plated in 96-well plates; endogenous in cells; details: Table 1; CRE-Luc reporter, HEK293T; read-out: Transactivation Assay hTGR5 EC50
# Protocol: HEPG2 and HEK293T cells were cultured in E-MEM and DMEM respectively, either supplemented with 1% penicillin/streptomycin, 1% L-glutamine and 10% fetal bovine serum. […] Cells were grown at 37° C. in 5% CO2. All the transfections were made using 5:2 Fugene HD Trasfection reagent (μl) to DNA (μg) respectively (Roche). […] Transient transfections were performed using 100 ng of reporter vector pGL4.29[luc2P/CRE/Hygro] […] The pGEM vector was added to normalize the amounts of DNA transfected in each assay (2 μg). […] The cells were then lysed by adding 75 μl of Dual-Glo Luciferase Reagent (Promega) to 75 μl of medium containing cells/well. Renilla luciferase activity was measured by adding volume:volume of Dual-Glo Stop & Glo reagent and original culture medium. Luciferase activities were expressed as ratio between luciferase unit and renilla luciferase unit. Each data point is the average of triplicate assays. Each experiment was repeated at least three times.
# as §1
# [6] = femoral infusion 1 μmol/kg/min 1 h, 75 min
# bovine serum albumin, sequence (P02769 25-607): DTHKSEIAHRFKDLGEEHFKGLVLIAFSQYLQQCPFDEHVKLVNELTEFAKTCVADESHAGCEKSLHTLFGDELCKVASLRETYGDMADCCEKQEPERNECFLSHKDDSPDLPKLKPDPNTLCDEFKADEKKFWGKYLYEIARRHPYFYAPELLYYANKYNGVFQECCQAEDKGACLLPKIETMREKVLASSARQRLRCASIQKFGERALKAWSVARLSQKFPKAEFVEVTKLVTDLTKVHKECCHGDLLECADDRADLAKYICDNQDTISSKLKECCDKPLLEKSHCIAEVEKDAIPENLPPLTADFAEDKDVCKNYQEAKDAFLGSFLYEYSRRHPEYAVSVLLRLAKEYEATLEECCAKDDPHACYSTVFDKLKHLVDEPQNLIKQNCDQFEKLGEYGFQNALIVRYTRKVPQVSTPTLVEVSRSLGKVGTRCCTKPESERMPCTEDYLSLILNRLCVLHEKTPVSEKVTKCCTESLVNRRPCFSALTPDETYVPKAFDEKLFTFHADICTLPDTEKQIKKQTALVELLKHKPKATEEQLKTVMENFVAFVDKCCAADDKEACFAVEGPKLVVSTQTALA
smiles,measurement,setting,value
"CC[C@H]1[C@@H](O)[C@@H]2[C@H](CC[C@]3(C)[C@@H]([C@H](C)CCC(=O)O)[C@@H](O)C[C@@H]23)[C@@]2(C)CC[C@@H](O)C[C@@H]12 [Compound 10, 3α,7α,16β-trihydroxy-6α-ethyl-5β-cholan-24-oic acid sodium salt]",LogPA-: 1-octanol-water partition coefficient,[1],1.6
same,CAR Activation EC50,CAR,No activity
same,Compound recovered unmodified in human stool cultures,"intestinal bacteria; after 24 hour incubation, 0.05 mM, 37° C.",more than 85%
same,Side chain stability to intestinal bacteria,intestinal bacteria; human stool cultures,very stable for side chain metabolism
same,"Hepatic metabolism, species in bile after iv administration","[2]; bile fistula rat, mass spectrometry",secreted in bile as such and mainly conjugated with taurine
same,Conc. in bile,[2]; [6],40 µM
same,Secretion (biliary),[2]; [6],0.002 µmol/kg/min
same,Biliary secretion after iv infusion,"[2]; femoral infusion 1 μmol/kg/min, bile fistula rat",not efficient
same,Conc. in bile,"[2]; femoral infusion, 90 min",2300 µM
same,Conc. in bile,"[2]; femoral infusion, 120 min",900 µM
same,Conc. in bile,"[2]; femoral infusion, 150 min",60 µM
same,Conc. in bile,"[2]; femoral infusion, 180 min",40 µM
same,Conc. in bile,"[2]; femoral infusion, 210 min",20 µM
same,Secretion (biliary),"[2]; femoral infusion, 90 min",0.127 µmol/kg/min
same,Secretion (biliary),"[2]; femoral infusion, 120 min",0.065 µmol/kg/min
same,Secretion (biliary),"[2]; femoral infusion, 150 min",0.004 µmol/kg/min
same,Secretion (biliary),"[2]; femoral infusion, 180 min",0.003 µmol/kg/min
same,Secretion (biliary),"[2]; femoral infusion, 210 min",0.001 µmol/kg/min
same,IC50,PXR,64000 nM
same,Albumin Binding,bovine serum albumin,83%
same,EC50,"hTGR5 [3]; FRET (cAMP) NCI-H716 hTGR5 EC50, Table 1, NCI-H716 cells",650 nM
same,EC50,"hTGR5 [3]; TGR5 Activation EC50, Table 6, cAMP level on NCI-H716",600 nM
same,EC50,hTGR5 [4],200 nM
same,EC50,hTGR5 [5],40 nM
